Test results published in PubChem BioAssay AID977614 (Broad Institute, 2014).
Active and inactive are the calls of the source.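 Rule for the calls: active = parasite count per well reduced by over 3 SD from the mean, with host cell number above 80% of untreated; inactive = the rest.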

Test system: L. donovani amastigotes in THP-1 macrophages, DAPI imaging, 72 h
Assay: antileishmanial activity in infected macrophages – imaging, THP-1 host macrophages, single concentration (AID 977614);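 note: signal is the parasite per host cell ratio from DAPI stained kinetoplasts and nuclei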

Compound | AC50
CN1[C@H](CO)[C@@H]2c3ccccc3N(C(=O)Nc3cc(F)ccc3F)C[C@@H]21 | > 10 µM (inactive)
COc1ccc(CN2[C@H](CO)[C@@H]3c4ccccc4NC[C@@H]32)cc1 | > 10 µM (inactive)
C[C@H](CO)N1C[C@H](C)[C@H](CN(C)S(=O)(=O)c2ccc3c(c2)OCCCO3)OCc2cnnn2CCCC1=O | > 10 µM (inactive)
C[C@@H]1CN([C@@H](C)CO)C(=O)CCCn2nncc2CO[C@@H]1CN(C)S(=O)(=O)c1ccc2c(c1)OCCCO2 | > 10 µM (inactive)
C/C=C/c1ccc([C@@H]2[C@@H](CNC(=O)C3CCC3)N(C(=O)NCCC)[C@H]2CO)cc1 | > 10 µM (inactive)
CC(C)NC(=O)N1[C@H](CNC(=O)CN(C)C)[C@@H](c2ccccc2)[C@@H]1CO | > 10 µM (inactive)
O=C(NC[C@H]1N[C@H](CO)[C@H]1c1ccccc1)c1ccccc1F | > 10 µM (inactive)
COc1ccccc1NC(=O)N1C[C@@H]2[C@H](c3ccccc31)[C@H](CO)N2C(=O)C1CCCC1 | > 10 µM (inactive)
C[C@H]1CN([C@@H](C)CO)C(=O)CCCn2nncc2CO[C@H]1CN(C)S(=O)(=O)c1ccc(Oc2ccccc2)nc1 | > 10 µM (inactive)
O=C(CC(F)(F)F)N1C[C@H]2[C@@H](c3ccccc31)[C@@H](CO)N2C(=O)C1CCCCC1 | > 10 µM (inactive)
C[C@H]1CN([C@@H](C)CO)C(=O)CCCn2nncc2CO[C@@H]1CN(C)C(=O)Oc1cccc2ccccc12 | > 10 µM (inactive)
C[C@@H]1CN([C@H](C)CO)C(=O)CCCn2nncc2CO[C@@H]1CN(C)C(=O)Oc1cccc2ccccc12 | > 10 µM (inactive)
C/C=C/c1ccc([C@H]2[C@@H](CO)N(C(=O)C3CC3)[C@H]2CNC(=O)NC(C)C)cc1 | > 10 µM (inactive)
O=C(c1ccccc1)N1C[C@@H]2[C@H](c3ccccc31)[C@H](CO)N2Cc1ccccn1 | > 10 µM (inactive)
C[C@@H]1CN([C@@H](C)CO)C(=O)CCCn2nncc2CO[C@@H]1CN(C)S(=O)(=O)c1ccc(Oc2ccccc2)nc1 | > 10 µM (inactive)
CCCC(=O)N1C[C@@H]2[C@H](c3ccccc31)[C@H](CO)N2Cc1cocn1 | > 10 µM (inactive)
C[C@H]1CN([C@@H](C)CO)C(=O)CCCn2cc(nn2)CO[C@@H]1CN(C)C(=O)Oc1ccc2ccccc2c1 | > 10 µM (inactive)
C[C@H](CO)N1C[C@H](C)[C@@H](CN(C)C(=O)c2ccc3ccn(C)c3c2)OCc2cnnn2CCCC1=O | > 10 µM (inactive)
CC(=O)N1[C@H](CO)[C@H](c2ccccc2)[C@H]1CN(CC1CCC1)C(=O)CN(C)C | > 10 µM (inactive)

Compound | AC50
O=C(Cc1ccccn1)N1[C@H](CO)[C@H]2c3ccccc3NC[C@H]21 | > 10 µM (inactive)
CCCNC(=O)N1C[C@@H]2[C@H](c3ccccc31)[C@@H](CO)N2C(=O)Nc1ccccc1F | > 10 µM (inactive)
CNC[C@H]1OCc2cnnn2CCCC(=O)N([C@@H](C)CO)C[C@@H]1C | > 10 µM (inactive)
CC(=O)N(Cc1cccc(F)c1)C[C@@H]1[C@@H](c2ccccc2)[C@@H](CO)N1C(C)=O | > 10 µM (inactive)
CCN(C[C@H]1N[C@H](CO)[C@@H]1c1ccccc1)C(=O)c1ccncc1 | > 10 µM (inactive)
C[C@H](CO)N1C[C@H](C)[C@H](CN(C)S(=O)(=O)c2cn(C)cn2)OCc2cnnn2CCCC1=O | > 10 µM (inactive)
O=C(Cc1cccnc1)N1[C@H](CNCC2CCC2)[C@H](c2ccccc2)[C@@H]1CO | > 10 µM (inactive)
C[C@H](CO)N1C[C@H](C)[C@H](CN(C)C(=O)NC2CCCC2)OCc2cnnn2CCCC1=O | > 10 µM (inactive)
CCCC(=O)N1C[C@@H]2[C@H](c3ccccc31)[C@H](CO)N2C(=O)Nc1ccc(F)cc1 | > 10 µM (inactive)
C[C@@H]1CN([C@H](C)CO)C(=O)CCCn2cc(nn2)CO[C@H]1CN(C)C(=O)CCC(F)(F)F | > 10 µM (inactive)
C[C@@H]1CN([C@H](C)CO)C(=O)CCCn2nncc2CO[C@@H]1CN(C)C(=O)Nc1cccc(Oc2ccccn2)c1 | > 10 µM (inactive)
CCC(=O)NC[C@@H]1[C@@H](c2ccc(-c3cccc(F)c3)cc2)[C@@H](CO)N1CC1CC1 | > 10 µM (inactive)
CN(C[C@H]1[C@@H](c2ccccc2)[C@H](CO)N1Cc1ccccn1)S(C)(=O)=O | > 10 µM (inactive)
COCC(=O)N1[C@H](CO)[C@H]2c3ccccc3NC[C@H]21 | > 10 µM (inactive)
CN1C[C@H]2[C@@H](c3ccccc31)[C@@H](CO)N2C(=O)C1CCOCC1 | > 10 µM (inactive)
CCC(=O)N1[C@H](CO)[C@H](c2ccc(-c3cccc(OC)c3)cc2)[C@@H]1CNC(C)=O | > 10 µM (inactive)
C[C@@H]1CN([C@H](C)CO)C(=O)CCCn2nncc2CO[C@H]1CN(C)C(=O)c1ccc(N2CCN(C)CC2)cc1 | > 10 µM (inactive)
CCCNC(=O)N1C[C@@H]2[C@H](c3ccccc31)[C@H](CO)N2C(=O)CN1CCOCC1 | > 10 µM (inactive)
C[C@@H]1CN([C@H](C)CO)C(=O)CCCn2cc(nn2)CO[C@H]1CN(C)C(=O)Nc1cccc(C(F)(F)F)c1 | > 10 µM (inactive)
